Source: patent US9321760B2 (Merck Patent GmbH, priority 2011, dated 2016)

Molecular target: P70S6K (T412E mutant) (Homo sapiens (Human), UniProt P23443, T412E)
Test: P70S6K enzyme assay
Format: biochemical
Conditions: 3 nM P70S6K T412E mutant, 24 μM ATP, 1 μM FITC-AHA-AKRRRLSSLRA-OH substrate peptide, 90 min at 25° C.
In short: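 P70S6K T412E mutant (3 nM) with 24 μM ATP and 1 μM FITC-labelled S6-derived peptide in Hepes pH 7.5, MgCl2, DTT, Brij buffer; 90 min at 25° C, stopped with EDTA. Phosphorylated product and substrate peptides separated by microfluidic mobility shift; IC50 values derived.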

Chain of P70S6K (T412E mutant) (P23443 whole entry T412E): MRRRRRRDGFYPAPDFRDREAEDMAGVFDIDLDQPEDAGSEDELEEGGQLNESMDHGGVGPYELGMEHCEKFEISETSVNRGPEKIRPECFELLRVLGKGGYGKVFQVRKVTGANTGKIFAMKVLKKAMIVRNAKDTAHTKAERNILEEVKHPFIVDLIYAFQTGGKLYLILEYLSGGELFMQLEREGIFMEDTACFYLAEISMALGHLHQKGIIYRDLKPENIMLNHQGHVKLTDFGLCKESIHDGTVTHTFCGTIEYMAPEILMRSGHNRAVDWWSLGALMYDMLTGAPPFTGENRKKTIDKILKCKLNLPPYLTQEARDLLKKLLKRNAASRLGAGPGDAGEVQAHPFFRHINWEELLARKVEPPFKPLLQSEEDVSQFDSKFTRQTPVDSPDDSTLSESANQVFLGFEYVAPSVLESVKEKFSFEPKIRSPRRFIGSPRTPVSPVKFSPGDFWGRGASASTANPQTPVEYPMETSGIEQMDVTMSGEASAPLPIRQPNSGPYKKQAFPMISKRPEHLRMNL

| Compound | IC50 |
| --- | --- |
| Nc1ncnc(N2CCC(Cc3ccc(Cl)cc3)CC2)c1Br [Example 46, 5-Bromo-6{4-(4-chlorobenzyl)-piperidin-1-yl}pyrimidin-4-amine] | 630 nM |
| Nc1ncnc(N2CCC(C(NCC3CCNCC3)c3ccc(F)cc3)CC2)c1-c1ccc(F)cc1 (centres unmarked) [Example 151] | 200 nM |
| Nc1ncnc(N2CCC(N)(C(=O)N[C@@H](CCO)c3ccncc3)CC2)c1Cl [Example 239, 4-Amino-1-(6-amino-5-chloro-pyrimidin-4-yl)-piperidine-4-carboxylic acid ((S)-3-hydroxy-1-pyridin-4-yl-propyl)-amide] | 7200 nM |
| CC[C@H](NC(=O)C1(N)CCN(c2ncnc(N)c2Cl)CC1)c1ccc(Cl)cc1 [Example 215, 4-Amino-1-(6-amino-5-chloro-pyrimidin-4-yl)-piperidine-4-carboxylic acid [(S)-1-(4-chloro-phenyl)-propyl]-amide] | 190 nM |
| Cc1ccc(C(CN2CCC2)N2CCN(c3ncnc(N)c3-c3cn[nH]c3)CC2)c(F)c1F (centres unmarked) [Example 100, 6-{4-[2-Azetidin-1-yl-1-(2,3-difluoro-4-methyl-phenyl)-ethyl]-piperazin-1-yl}-5-(1H-pyrazol-4-yl)-pyrimidin-4-ylamine] | 900 nM |
| Nc1ncnc(N2CCN([C@@H](CN3CCC3)c3ccc4c(c3)OCCO4)CC2)c1-c1cn[nH]c1 [Example 107, 6-{4-[(R)-2-Azetidin-1-yl-1-(2,3-dihydro-benzo[1,4]dioxin-6-yl)-ethyl]-piperazin-1-yl}-5-(1H-pyrazol-4-yl)-pyrimidin-4-ylamine] | 5200 nM |
| Nc1ncnc(N2CCN(C(CN3CCCCC3)c3cccc(F)c3)CC2)c1Br (centres unmarked) [Example 68, 5-Bromo-6{4-[1-(3-fluoro-phenyl)-2-piperidin-1-yl-ethyl]-piperazin-1-yl}-pyrimidin-4-ylamine] | > 1000 nM |
| CCc1c(N)ncnc1N1CCN([C@@H](CN)c2ccc(Cl)cc2)CC1 [Example 180, 6-{4-[(R)-2-Amino-1-(4-chloro-phenyl)-ethyl]-piperazin-1-yl}-5-ethyl-pyrimidin-4-ylamine] | 190 nM |
| COc1ccc(C(CN2CCC2)N2CCN(c3ncnc(N)c3-c3ccc(F)cc3)CC2)cc1F (centres unmarked) [Example 92, 6-{4-[2-Azetidin-1-yl-1-(3-fluoro-4-methoxy-phenyl)-ethyl]-piperazin-1-yl}-5-(4-fluoro-phenyl)-pyrimidin-4-ylamine] | 300 nM |
| Nc1ncnc(N2CCN(C(CN3CCCCC3)c3ccc(C(F)(F)F)cc3)CC2)c1Br (centres unmarked) [Example 11, 5-bromo-6-(4-(2-(piperidin-1-yl)-1-(4-(trifluoromethyl)phenyl)ethyl)piperazin-1-yl)pyrimidin-4-amine] | 280 nM |
| CS(=O)(=O)c1ccc(C(C#N)N2CCN(c3ncnc(N)c3-c3cn[nH]c3)CC2)cc1 (centres unmarked) [Example 184, 2-(4-(6-amino-5-(1H-pyrazol-4-yl)pyrimidin-4-yl)piperazin-1-yl)-2-(4-(methylsulfonyl)phenyl)acetonitrile] | > 1000 nM |
| COc1ccc(C(CN2CCC2)N2CCN(c3ncnc(N)c3-c3cn[nH]c3)CC2)cc1F (centres unmarked) [Example 95, 6-{4-[2-Azetidin-1-yl-1-(3-fluoro-4-methoxy-phenyl)-ethyl]-piperazin-1-yl}-5-(1H-pyrazol-4-yl)-pyrimidin-4-ylamine] | 3500 nM |
| Nc1ncnc(N2CCN(C(CN3CCC3)c3cccc(F)c3)CC2)c1-c1cn[nH]c1 (single isomer, unassigned) [Example 84, 6-{4-[2-Azetidin-1-yl-1-(3-fluoro-phenyl)-ethyl]-piperazin-1-yl}-5-(1H-pyrazol-4-yl)-pyrimidin-4-ylamine] | 15000 nM |
| NCC(c1ccc(C(F)(F)F)cc1)N1CCN(c2ncnc(N)c2Br)CC1 (centres unmarked) [Example 1, 6-{4-[2-Amino-1-(4-trifluoromethyl-phenyl)-ethyl]-piperazin-1-yl}-5-bromo-pyrimidin-4-ylamine] | 5.8 nM |

Next, values leading:

| IC50 | Compound |
| --- | --- |
| 35 nM | C=Cc1c(N)ncnc1N1CCN(C(CN(C)C)c2ccc(C(F)(F)F)cc2)CC1 (centres unmarked) [Example 21, 6-(4-(2-(dimethylamino)-1-(4-(trifluoromethyl)phenyl)ethyl)piperazin-1-yl)-5-vinylpyrimidin-4-amine] |
| 4 nM | NCC(c1ccc(F)c(Cl)c1)N1CCN(c2ncnc(N)c2-c2ccc(F)cc2)CC1 (centres unmarked) [Example 161, 6-{4-[2-Amino-1-(3-chloro-4-fluoro-phenyl)-ethyl]-piperazin-1-yl}-5-(4-fluoro-phenyl)-pyrimidin-4-ylamine] |
| 98 nM | Cn1ccc(-c2c(N)ncnc2N2CCN(C(CN)c3ccc(C(F)(F)F)cc3)CC2)n1 (centres unmarked) [Example 43, 6-{4-[2-Amino-1-(4-trifluoromethyl-phenyl)-ethyl]-piperazin-1-yl}-5-(1-methyl-1H-pyrazol-3-yl)-pyrimidin-4-ylamine] |
| 4.5 nM | NC[C@@H](c1ccc(C(F)(F)F)cc1)N1CCN(c2ncnc(N)c2-c2ccc(F)cc2)CC1 [Example 4, 6-{4-[(R)-2-Amino-1-(4-trifluoromethyl-phenyl)-ethyl]-piperazin-1-yl}-5-(4-fluoro-phenyl)-pyrimidin-4-ylamine] |
| 140 nM | COC(=O)c1ccc(C(CN2CCC2)N2CCN(c3ncnc(N)c3-c3ccc(F)cc3)CC2)cc1 (centres unmarked) [Example 96, 4-(1-{4-[6-Amino-5-(4-fluoro-phenyl)-pyrimidin-4-yl]-piperazin-1-yl}-2-azetidin-1-yl-ethyl)-benzoic acid methyl ester] |
| 29 nM | Nc1ncnc(N2CCN(C(CN3CCCC3)c3ccc(F)cc3)CC2)c1-c1ccc(F)cc1 (stereo in doubt) [Example 82, (R)5-(4-Fluorophenyl)-6{4-[1-(4-fluorophenyl)-2-pyrrolidin-1-yl-ethyl]-piperazin-1-yl}-pyrimidin-4-ylamine] |
| 150 nM | Nc1ncnc(N2CCC(N)(CNC(=O)c3ccc(F)cc3F)CC2)c1Br [Example 207, N-[4-Amino-1-(6-amino-5-bromo-pyrimidin-4-yl)-piperidin-4-ylmethyl]-2,4-difluoro-benzamide] |
| 78 nM | CC[C@H](NC(=O)C1(N)CCN(c2ncnc(N)c2-c2cn[nH]c2)CC1)c1ccc(Cl)cc1 [Example 225, 4-Amino-1-[6-amino-5-(1H-pyrazol-4-yl)-pyrimidin-4-yl]-piperidine-4-carboxylic acid [(S)-1-(4-chloro-phenyl)-propyl]-amide] |
| 3.4 nM | NC[C@H](c1ccc(C(F)(F)F)cc1)N1CCN(c2ncnc(N)c2-c2cn[nH]c2)CC1 [Example 8, (S)-6-(4-(2-amino-1-(4-(trifluoromethyl)phenyl)ethyl)piperazin-1-yl)-5-(1H-pyrazol-4-yl)pyrimidin-4-amine] |
| 2.5 nM | Nc1ncnc(N2CCC(C(O)c3ccc(Cl)cc3)CC2)c1-c1ccc(F)cc1 (centres unmarked) [Example 138] |
| 13 nM | NCC(c1cc(C(F)(F)F)ccc1F)N1CCN(c2ncnc(N)c2-c2ccc(F)cc2)CC1 (centres unmarked) [Example 192, 6-{4-[2-Amino-1-(2-fluoro-5-trifluoromethyl-phenyl)-ethyl]-piperazin-1-yl}-5-(4-fluoro-phenyl)-pyrimidin-4-ylamine] |
| 79 nM | NCC(c1ccc(C(F)(F)F)cc1)N1CCN(c2ncnc(N)c2Cl)CC1 (centres unmarked) [Example 80, 6-{4-[2-Amino-1-(4-trifluoromethyl-phenyl)-ethyl]-piperazin-1-yl}-5-chloro-pyrimidin-4-ylamine] |
